Reference: article PMC11577759, “The structure of lipopeptides impacts their antiviral activity and mode of action against SARS-CoV-2 in vitro” (Applied and Environmental Microbiology, 2024)
Like-named read-outs stand apart in the source and are kept apart here. Marks after values point to notes of the source that are not given here.

Columns and labels:
Vero E6 cells = experiment: Cytotoxicity, CyQUANT XTT cell viability assay; type: cell-based, Chlorocebus sp.; conditions: 72 h
Procedure: Chlorocebus sp. kidney epithelial cells (Vero E6; ATCC VERO C1008) were cultured in Dulbecco’s Modified Eagle medium (DMEM) High Glucose w/ Stable Glutamine w/ Sodium Pyruvate (VWR, USA) supplemented with 2% (vol/vol) of decomplemented fetal bovine serum (FBS, Biowest, France) and 1% (vol/vol) Penicillin-Streptomycin (VWR, USA). The cells were grown at 37°C in a humidified 5% CO2 atmosphere. Cells were routinely passaged when they reached 100% confluence and were passaged until passage 15.
The cytotoxic activity of the lipopeptides was assessed using a CyQUANT XTT Cell Viability Assay (Thermo Fisher Scientific) according to the manufacturer’s instructions. […] The cells were then incubated for 72 h at 37°C. The kit was then used following the manufacturer’s instructions, and the plates were read at 450 nm and 660 nm using a Multiskan GO Microplate Spectrophotometer (Thermo Fisher Scientific). The percentage of viable cells was calculated as (AT450 − AT660 − AB450) / (AC450 − AC660) × 100%, where AT450, AT660, AB450, AC450, and AC660 represent the absorbance of the tested well at 450 nm, of the tested well at 660 nm, of the blank (only medium) at 450 nm, of the control cells at 450 nm, and of the control cells at 660 nm, respectively. One hundred percent viability corresponds to the viability of uninfected cells. DMSO concentrations ranging from 0.5% (vol/vol) to 0.001% (vol/vol) were used as a negative control for the assay. Every sample was tested in triplicate.

SARS-CoV-2 [1] = experiment: Replication / antiviral assay, viral RNA in supernatant by RT-qPCR; type: cell-based; conditions: for Reduction of viral RNA concentration: serum diluted five times, vs infected cells (Fig. 6)
SARS-CoV-2 [2] = experiment: Binding inhibition: pre-treatment of SARS-CoV-2 and incubation on cells; type: cell-based; conditions: virus pre-treated, surfactin 35, WLIP 20, fengycin 50, caspofungin 100 µg/mL
SARS-CoV-2 [3] = type: cell-based; conditions: cells pre-treated, surfactin 35, WLIP 20, fengycin 50, caspofungin 100 µg/mL
SARS-CoV-2 [4] = experiment: Binding inhibition: pre-infection treatment of cells; type: cell-based; conditions: cells pre-treated and cleared from unbound lipopeptide before infection; fengycin 50 µg/mL
Procedure: For the binding inhibition assays, four different conditions (Fig. 1) were tested to assess the potential of lipopeptides to inhibit the attachment of SARS-CoV-2 to cells in different settings. […] In these assays, SARS-CoV-2 was used at an MOI of 10, and every sample was tested in triplicate. Some steps were performed at 4°C to rigidify the cellular and viral membranes, allowing the virus to bind to the cells but not fuse with the […], as detailed below.
The cell supernatant was discarded, and the lipopeptides were added to the cells, which were subsequently incubated for 1 h at 37°C with gentle agitation. […] The viral stock was then added to the cells, which were subsequently incubated on ice for 1 h with gentle agitation.

SARS-CoV-2 [5] = conditions: surfactin 35, WLIP 20, fengycin 50, caspofungin 100 µg/mL; 100% = untreated infected cells at 37°C
Procedure: To determine the impact of lipopeptides on the fusion step, intracellular viral RNA was quantified after infection of cells with SARS-CoV-2 but before the budding step. […] The cells were pre-chilled for 15 min on ice. The cells were infected with SARS-CoV-2 (MOI of 10) in DMEM + 2% FBS and incubated for 2 h on ice with gentle agitation. The inoculum was removed, and the cells were gently washed three times with ice-cold DPBS. The positive control was inactivated to determine the basal viral RNA concentration after binding of the virus. The lipopeptides were added to room temperature DMEM + 2% (vol/vol) FBS and incubated at 37°C for 7 h. […] The cells were rinsed with DPBS, and the wells were dried. The samples were inactivated for 30 min at 70°C before quantification of the viral RNA by RT-qPCR. Every sample was tested in triplicate.

Fengycin
Cell viability (Vero E6 cells; 100 µg/mL, Vero E6): 64.1% | IC50 (half maximal inhibitory concentration, cytotoxicity) (Vero E6 cells; Vero E6 cells, XTT, mean (standard deviation), fengycin and caspofungin determined at higher concentrations in a subsequent experiment): 295.3 (28.3)^b µg/mL | Cell viability (Vero E6 cells; surfactin 35, WLIP 20, fengycin 50, caspofungin 100 µg/mL, Vero E6 (Fig. 5)): 89.9% | Reduction of viral RNA concentration (SARS-CoV-2 [1]; 24 h pi, surfactin 35, WLIP 20, fengycin 50, caspofungin 100 µg/mL): did not reduce the RNA concentration | Reduction of viral RNA concentration (SARS-CoV-2 [1]; 72 h pi, surfactin 35, WLIP 20, fengycin 50, caspofungin 100 µg/mL): 0.6 log | EC50 (half maximal effective concentration) (SARS-CoV-2 [1]; SARS-CoV-2 MOI 0.01, Vero E6, viral RNA at 72 h pi by RT-qPCR, mean (standard deviation)): 71.7 (20.7) µg/mL | Reduction in viral RNA (SARS-CoV-2 [1]; surfactin 35, WLIP 20, fengycin 50, caspofungin 100 µg/mL, 72 h (Fig. 5)): 3.2 log | Binding percentage of SARS-CoV-2 to cells (SARS-CoV-2 [2]): 21.7% | Binding percentage of SARS-CoV-2 to cells (SARS-CoV-2 [3]): 11.3% | Binding percentage of SARS-CoV-2 to cells (SARS-CoV-2 [4]): 54% | Fusion percentage (SARS-CoV-2 [5]): 17.2%
